{"source": "paper PMC4778918", "about": "“Signal Transduction at the Domain Interface of Prokaryotic Pentameric Ligand-Gated Ion Channels” (PLoS Biology, 2016)", "molecules": {"B1": {"name": "ELIC wild type (receptor)", "chain": "APADNAADARPVDVSVSIFINKIYGVNTLEQTYKVDGYIVAQWTGKPRKTPGDKPLIVENTQIERWINNGLWVPALEFINVVGSPDTGNKRLMLFPDGRVIYNARFLGSFSNDMDFRLFPFDRQQFVLELEPFSYNNQQLRFSDIQVYTENIDNEEIDEWWIRKASTHISDIRYDHLSSVQPNQNEFSRITVRIDAVRNPSYYLWSFILPLGLIIAASWSVFWLESFSERLQTSFTLMLTVVAYAFYTSNILPRLPYTTVIDQMIIAGYGSIFAAILLIIFAHHRQAMGVEDDLLIQRCRLAFPLGFLAIGCVLVIRGITL", "notes": "ELIC, prokaryotic pentameric ligand-gated ion channel; GenBank WP_013319743 printed; Homopentamer; purified for ITC with small-molecule ligands; also called ELIC WT; source: E. coli BL21-DE3, purified (extracted in UDM, Ni-NTA, HRV 3C cleavage, Superdex 200 gel filtration); not shown: His10, N-terminal, cleaved"}, "B2": {"name": "ELIC double mutant R91A/F116A (receptor)", "chain": "B1 chain with R91A, F116A", "notes": "source: E. coli BL21-DE3, purified (extracted in UDM, Ni-NTA, HRV 3C cleavage, Superdex 200 gel filtration)"}}, "key": {"[1]": {"molecular_target": "ELIC R91A/Y258A (Dickeya chrysanthemi, UniProt P0C7B7, R91A/Y257A)", "assay": "biochemical", "format": "binding, Erwinia chrisanthemi", "settings": "read-out: Keff"}, "[2]": {"molecular_target": "T1, ELIC T28D (Dickeya chrysanthemi, UniProt P0C7B7, INS163G/T28D)", "assay": "biochemical", "format": "binding, Erwinia chrisanthemi", "settings": "ITC"}, "[3]": {"molecular_target": "ELIC R91A/F116A (Dickeya chrysanthemi, UniProt P0C7B7, F116A/R91A)", "assay": "biochemical", "format": "binding, Erwinia chrisanthemi", "settings": "read-out: Keff"}, "[4]": {"molecular_target": "ELIC R91A (Dickeya chrysanthemi, UniProt P0C7B7, INS163G/R91A)", "assay": "biochemical", "format": "binding, Erwinia chrisanthemi", "settings": "read-out: Keff"}, "[5]": {"molecular_target": "ELIC ΔL29 (Dickeya chrysanthemi, UniProt P0C7B7, DEL29-29/INS163G)", "format": "cell-based, Erwinia chrisanthemi", "settings": "ELIC woL29 (deletion of Leu29), 0.5 mM Ca2+, mean of 4 oocytes", "description": "(§1) X. laevis oocytes were obtained either from Ecocyte or from an in-house facility. Animal procedures and preparation of oocytes followed standard procedures and were in accordance with the Swiss Cantonal and Federal legislation relating to animal experimentation. Plasmid DNA containing the genes coding for the respective constructs for expression in X. laevis oocytes were linearized by MluI, and capped mRNA was transcribed with the mMessage mMachine kit (Ambion) and purified with the RNeasy kit (Qiagen). 10–200 ng of mRNA was injected into defolliculated X. laevis oocytes, which were subsequently incubated in Barth’s solution (88 mM NaCl, 1 mM KCl, 1 mM CaCl2, 0.33 mM Ca(NO3)2, 0.82 mM MgSO4, 10 mM Na-Hepes (pH 7.4) and 50 μg / ml Gentamycin) and stored at 16°C. One to three days after injection, two-electrode voltage clamp measurements were performed at 20°C (OC-725B, Warner Instrument Corp.). For ELIC, maximal currents were recorded in a bath solution containing 10 mM Hepes (pH 7), 130 mM NaCl, 2 mM KCl, 0.5 mM CaCl2 and either 5 mM or 25 mM Cysteamine. […] Dose-response experiments were carried out at agonist concentrations indicated in the respective figures. Voltage was clamped at −40 mV, and data was filtered at 20 Hz unless stated otherwise."}, "[6]": {"molecular_target": "T2, ELIC WT (Dickeya chrysanthemi, UniProt P0C7B7, INS163G)", "assay": "Two-electrode voltage clamp dose-response, ELIC WT in X. laevis oocytes", "format": "cell-based, Erwinia chrisanthemi", "settings": "0.5 mM Ca2+, mean of 4 oocytes", "text": "X. laevis oocytes were obtained either from Ecocyte or from an in-house facility. Animal procedures and preparation of oocytes followed standard procedures and were in accordance with the Swiss Cantonal and Federal legislation relating to animal experimentation. Plasmid DNA containing the genes coding for the respective constructs for expression in X. laevis oocytes were linearized by MluI, and capped mRNA was transcribed with the mMessage mMachine kit (Ambion) and purified with the RNeasy kit (Qiagen). 10–200 ng of mRNA was injected into defolliculated X. laevis oocytes, which were subsequently incubated in Barth’s solution (88 mM NaCl, 1 mM KCl, 1 mM CaCl2, 0.33 mM Ca(NO3)2, 0.82 mM MgSO4, 10 mM Na-Hepes (pH 7.4) and 50 μg / ml Gentamycin) and stored at 16°C. One to three days after injection, two-electrode voltage clamp measurements were performed at 20°C (OC-725B, Warner Instrument Corp.). For ELIC, maximal currents were recorded in a bath solution containing 10 mM Hepes (pH 7), 130 mM NaCl, 2 mM KCl, 0.5 mM CaCl2 and either 5 mM or 25 mM Cysteamine. For GLIC, the maximal currents were recorded in a bath solution containing 10 mM Citrate (pH 4), 130 mM NaCl, 2 mM KCl, 1.8 mM CaCl2 and 1 mM MgCl2. Dose-response experiments were carried out at agonist concentrations indicated in the respective figures. Voltage was clamped at −40 mV, and data was filtered at 20 Hz unless stated otherwise. Surface expression in constructs containing an HA-tag was assayed after electrophysiological characterization as described. For that purpose, the oocytes were placed in a 96-well plate (TPP) and incubated in ND96 solution (93.5 mM NaCl, 2 mM KCl, 1.8 mM CaCl2, 2 mM MgCl2 and 10 mM Hepes, pH 7.4) containing 1% BSA for at least 30 min. All steps were carried out at 4°C with the same buffer unless mentioned otherwise. Oocytes were subsequently transferred into buffer containing 1 μg/ml rat monoclonal anti-HA antibody (3F10, Roche) for 1 h, washed 3 times and incubated with buffer containing 0.16 μg/ml horseradish peroxidase (HRP) coupled to a secondary antibody (HRP-conjugated goat anti-rat F(Ab)2 fragments, Jackson) for 30–60 min. The oocytes were washed 5 times with ND96 solution and subsequently transferred to a white 96-well plate (flat bottom, Nunclon Delta Surface). The solution was aspirated, 30 μl of Super Signal ELISA femto solutions 1 and 2 (Pierce) was added, and luminescence was quantitated with a Tecan infinite M1000 plate reader."}, "[7]": {"molecular_target": "ELIC L29A (Dickeya chrysanthemi, UniProt P0C7B7, INS163G/L29A)", "format": "cell-based, Erwinia chrisanthemi", "settings": "0.5 mM Ca2+, mean of 3 oocytes", "description": "as §1"}, "[8]": {"molecular_target": "T1, ELIC T28D", "format": "cell-based, Erwinia chrisanthemi", "settings": "0.5 mM Ca2+, mean of 5 oocytes", "description": "as §1"}, "[9]": {"molecular_target": "ELIC P254A (Dickeya chrysanthemi, UniProt P0C7B7, P253A)", "format": "cell-based, Erwinia chrisanthemi", "description": "as §1"}, "[10]": {"molecular_target": "ELIC T28A (Dickeya chrysanthemi, UniProt P0C7B7, INS163G/T28A)", "format": "cell-based, Erwinia chrisanthemi", "settings": "for I/Imax mean: ELIC T28A, 0.5 mM Ca2+, mean of 4 oocytes", "description": "as §1"}, "[11]": {"tested_on": "ELIC", "parameters": "method as in PMID 21713033", "settings": "two-electrode voltage clamp recordings, ELIC WT, in the absence of Ca2+; cited from earlier work"}, "[12]": {"molecular_target": "ELIC resting state", "settings": "kinetic analysis of single channel recordings of ELIC; read-out: dissociation constant to the resting state; cited from earlier work"}, "[13]": {"molecular_target": "T2, ELIC WT", "assay": "biochemical", "format": "binding, Erwinia chrisanthemi"}, "[14]": {"molecular_target": "ELIC double mutant R91A/Y258A", "assay": "SEC"}, "[15]": {"molecular_target": "ELIC ligand binding site mutant R91A", "assay": "SEC"}, "[16]": {"molecular_target": "the molecule itself", "assay": "SEC; gel filtration on Superdex 200 at 4°C in buffer with 0.145% UDM after removal of His10-MBP; pentamer peak pooled for ITC"}, "[17]": {"molecular_target": "the molecule itself", "assay": "SEC"}}, "note": "Residue numbers refer to the chain shown, from its start. Numbers in names are those of the source. Where “and” joins values, the source holds several entries; their conditions need not be identical. Equal values may be shown once. Read-outs that look alike come from different tables or passages of the source."}
{"molecule": "CC(=O)OCC[N+](C)(C)C", "note": "[acetylcholine]", "values": [{"measurement": "Kd", "setting": "[1]", "value": 2, "unit": "mM"}, {"measurement": "binding of the antagonist compared to WT", "setting": "[2]; ELIC T28D versus WT", "value": "unchanged"}, {"measurement": "Kd", "setting": "[3]", "value": 1.8, "unit": "mM"}, {"measurement": "Kd", "setting": "[4]", "value": 1.4, "unit": "mM"}]}
{"molecule": "NCCS", "note": "[cysteamine]", "values": [{"measurement": "I/Imax mean", "setting": "[5]; conc cys. 0.25 (mM)", "value": 0.10}, {"measurement": "I/Imax mean", "setting": "[5]; conc cys. 0.5 (mM)", "value": 0.43}, {"measurement": "I/Imax mean", "setting": "[5]; conc cys. 0.75 (mM)", "value": 0.64}, {"measurement": "I/Imax mean", "setting": "[5]; conc cys. 1 (mM)", "value": 0.86}, {"measurement": "I/Imax mean", "setting": "[5]; conc cys. 2.5 (mM)", "value": 1.00}, {"measurement": "I/Imax mean", "setting": "[6]; conc cys. 0.1 (mM)", "value": 0.00}, {"measurement": "I/Imax mean", "setting": "[6]; conc cys. 0.25 (mM)", "value": 0.00655}, {"measurement": "I/Imax mean", "setting": "[6]; conc cys. 0.5 (mM)", "value": 0.09}, {"measurement": "I/Imax mean", "setting": "[6]; conc cys. 0.75 (mM)", "value": 0.32}, {"measurement": "I/Imax mean", "setting": "[6]; conc cys. 1 (mM)", "value": 0.54}, {"measurement": "I/Imax mean", "setting": "[6]; conc cys. 5 (mM)", "value": 1.00}, {"measurement": "I/Imax mean", "setting": "[7]; conc cys. 0.1 (mM)", "value": 0.16}, {"measurement": "I/Imax mean", "setting": "[7]; conc cys. 0.25 (mM)", "value": 0.69}, {"measurement": "I/Imax mean", "setting": "[7]; conc cys. 0.35 (mM)", "value": 0.79}, {"measurement": "I/Imax mean", "setting": "[7]; conc cys. 0.5 (mM)", "value": 0.88}, {"measurement": "I/Imax mean", "setting": "[7]; conc cys. 0.75 (mM)", "value": 1.00}, {"measurement": "I/Imax mean", "setting": "[8]; conc cys. 0.01 (mM)", "value": 0.13}, {"measurement": "I/Imax mean", "setting": "[8]; conc cys. 0.025 (mM)", "value": 0.63}, {"measurement": "I/Imax mean", "setting": "[8]; conc cys. 0.05 (mM)", "value": 0.96}, {"measurement": "I/Imax mean", "setting": "[8]; conc cys. 0.1 (mM)", "value": 1.00}, {"measurement": "I/Imax mean", "setting": "[9]; conc cys. 0.25 (unit not given)", "value": 0.0189}, {"measurement": "I/Imax mean", "setting": "[9]; conc cys. 0.5 (unit not given)", "value": 0.14}, {"measurement": "I/Imax, single oocyte", "setting": "[9]; conc cys. 0.5 (unit not given), listed as cys.", "value": "0.13 and 0.12 and 0.19"}, {"measurement": "I/Imax mean", "setting": "[9]; conc cys. 0.75 (unit not given)", "value": 0.41}, {"measurement": "I/Imax, single oocyte", "setting": "[9]; conc cys. 0.75 (unit not given), listed as cys.", "value": "0.33 and 0.45 and 0.39 and 0.42"}, {"measurement": "I/Imax mean", "setting": "[9]; conc cys. 1 (unit not given)", "value": 0.51}, {"measurement": "I/Imax, single oocyte", "setting": "[9]; conc cys. 1 (unit not given), listed as cys.", "value": "0.42 and 0.56 and 0.47"}, {"measurement": "I/Imax mean", "setting": "[9]; conc cys. 2.5 (unit not given)", "value": 0.90}, {"measurement": "I/Imax, single oocyte", "setting": "[9]; conc cys. 2.5 (unit not given), listed as cys.", "value": "0.82 and 0.97 and 0.85 and 0.95 and 0.92"}, {"measurement": "I/Imax mean", "setting": "[9]; conc cys. 5 (unit not given)", "value": 1.00}, {"measurement": "I/Imax, single oocyte", "setting": "[9]; conc cys. 5 (unit not given)", "value": 1.00}, {"measurement": "EC50 higher than WT", "setting": "[10]; ELIC T28A versus WT, two-electrode voltage clamp", "value": 3.5, "unit": "fold"}, {"measurement": "I/Imax mean", "setting": "[10]; conc cys. 1.00 (mM)", "value": 0.0138}, {"measurement": "I/Imax mean", "setting": "[10]; conc cys. 2.50 (mM)", "value": 0.34}, {"measurement": "I/Imax mean", "setting": "[10]; conc cys. 5.00 (mM)", "value": 0.56}, {"measurement": "I/Imax mean", "setting": "[10]; conc cys. 10.00 (mM)", "value": 0.83}, {"measurement": "I/Imax mean", "setting": "[10]; conc cys. 25.00 (mM)", "value": 1.00}]}
{"molecule": "CCCN", "note": "[propylamine]", "values": [{"measurement": "Kd", "setting": "[1]; ITC, ELIC double mutant R91A/Y258A, 4°C", "value": 0.9, "unit": "mM"}, {"measurement": "decrease in Keff concentration compared to WT", "setting": "[2]; ELIC T28D versus WT", "value": 90, "unit": "fold"}, {"measurement": "Kd", "setting": "[2]; ELIC mutant T28D, agonist, read-out: Keff", "value": 90, "unit": "µM"}, {"measurement": "EC50", "setting": "[11]", "value": 450, "unit": "µM"}, {"measurement": "Kd", "setting": "[12]", "value": 7.1, "unit": "mM"}, {"measurement": "Kd", "setting": "[3]; ITC, ELIC double mutant R91A/F116A, 4°C", "value": 0.8, "unit": "mM"}, {"measurement": "Keff (ITC) higher than EC50 (two-electrode voltage clamp)", "setting": "[13]", "value": "about 20 fold"}, {"measurement": "Kd", "setting": "[13]; ITC, ELIC WT in detergent (UDM), 4°C, single-site isotherm, read-out: effective dissociation constant (Keff)", "value": 8, "unit": "mM"}, {"measurement": "Kd", "setting": "[4]; ITC, ELIC ligand binding site mutant R91A, 4°C", "value": 1.1, "unit": "mM"}]}
{"molecule": "ELIC double mutant R91A/Y258A (receptor)", "values": [{"measurement": "stoichiometry N", "setting": "[14]", "value": 5}]}
{"molecule": "ELIC ligand binding site mutant R91A (receptor)", "values": [{"measurement": "stoichiometry N", "setting": "[15]", "value": 5}]}
{"molecule": "B1", "values": [{"measurement": "stoichiometry N", "setting": "[16]", "value": 5}]}
{"molecule": "B2", "values": [{"measurement": "stoichiometry N", "setting": "[17]", "value": 5}]}
